# Experimental data: US20220054588A1, “USE OF SAP FOR THE TREATMENT OF EUROTIOMYCETES FUNGI INFECTIONS” (HUMANITAS MIRASOLE S.P.A., priority 2018, published 2022)
# System: A. fumigatus
# Experiment: Therapy of invasive aspergillosis in cyclophosphamide-immunosuppressed mice (survival, lung CFU)
# Type: in vivo
# Conditions: for MST / survival: 4 mg/Kg i.p. at 2 and 24 h; for survival: cyclophosphamide-treated mice
# Experimental: FIG. 12 depicts the therapeutic efficacy of SAP in treatment of invasive aspergillosis. a) b) c) survival of transiently immunosuppressed wt mice after injection with the indicated doses of AF conidia. The curve of untreated mice (n=3) with cyclophosphamide is also shown (a). Human SAP (4 mg/Kg) was injected at 2 h and 24 h after infection. a) AF 5.10^7, n=17; AF 5.10^7+SAP, n=15; b) AF 1.10^7, n=7; AF 1.10^7+SAP, n=8; c) AF 5.10^6, n=8; AF 5.10^6+SAP, n=10.***, P<0.005 SAP-treated vs. saline (Mantel-Cox test). One-way ANOVA, P<0.0001. d) lung CFU in mice treated with cyclophosphamide and infected with 1.10^7 AF conidia.*, P<0.05 (Mann-Whitney test). e) quantitative analysis of AF viability performed using a resazurin-based assay. Plasma (30%) from wt and Apcs^−/− mice were incubated (1 min) with 1.5×10^5 AF conidia pre-opsonized or not with SAP. Results are mean±SD of red fluorescence (excitation/emission 535/580-610 nm) intensity of the resazurin once reduced to resorufin within viable cells. Effect of Posaconazole (POC; 1 μM) exposure is also shown. Results are mean±SEM relative to the condition without serum (grey symbols) of two experiments performed with n=10 mice/group. […] AF viability assay performed in sera depleted from complement components. Figure summarizes one experiment out of 5 also conducted with serum 10%. Mean±SD.*, P<0.05; **, P<0.01 (unpaired t-test). g) and h) FACS analysis of MAC deposition on AF conidia (1×10^7) in presence of sera depleted from complement components (e) and the effect of SAP (f). Mean±SEM of 2 experiments performed out of 4. e, f,*, P<0.05;**, P<0.01;***, P<0.005;****, P<0.001; (Mann-Whitney test).
# FIG. 13 depicts the therapeutic efficacy of SAP in treatment of invasive aspergillosis alone or in combination with posaconazole. Survival of transiently cyclophosphamide-immunosuppressed mice after injection with 5×10^7 conidia. Human SAP (4 mg/Kg) and Posaconazole (POS; 1.6 mg/Kg) were injected at 16 h and 40 h after infection. AF 5.10^7+ saline, n=9; AF 5.10^7+SAP, n=8; AF 5.10^7+POS, n=9; AF 5.10^7+SAP+POS, n=8. P<0.01, saline vs. hSAP; P<0.005, saline vs. POS; P<0.0005, saline vs. hSAP+POS; P<0.05, POS vs. hSAP+POS; (Mantel-Cox test).
# The growth and culture conditions of A. fumigatus and A. Flavus conidia were as described (Garlanda et al., 2002). For intratracheal (i.t.) injection, mice were anesthetized by i.p. injection of ketamine (100 mg/Kg; i.p.) and xylazine (10 mg/Kg i.p.). After surgical exposure, a volume of 50 μl PBS^2+, pH 7.4, containing 1×10^8 or 5×10^7 resting conidia (>95% viable, as determined by serial dilution and plating of the inoculum on Sabouraud dextrose agar) were delivered into trachea under direct vision using a catheter connected to the outlet of a micro-syringe (Terumo, Belgium). Survival to infection was daily monitored for 10d later. Dying mice were euthanized after evaluation of the following clinical parameters: body temperature dropping, intermittent respiration, solitude presence, sphere posture, fur erection, non-responsive alertness, and inability to ascent when induced.
# In therapy experiments, immunosuppression was induced by i.p. injection of 150 mg/Kg cyclophosphamide (150μl per mouse of 20 mg/ml solution) 2d before infection. Native human SAP (Merck-Millipore) was dialysed in PBS (pH 7.4) in order to eliminate sodium azide and i.p. injected at the dose of 4 mg/Kg at 2 and 24 h after infection or in combination with Posaconazole (POS; 1.6 mg/Kg) at 16 h and 40 h after infection.
# Lung homogenates and analysis. Lungs were removed 16 h after infection and homogenized in 1 ml PBS, pH 7.4, containing 0.01% (vol/vol) Tween-20® (Merck-Millipore) and protease inhibitors. Samples were serially diluted 1:10 in PBS and plated on Sabouraud dextrose agar for blinded CFU counting. […]
substance,measurement,setting,value
"human native SAP: Native SAP from human serum purchased by Merck-Millipore; Serum Amyloid P component, SEQ ID NO: 1",MST,1×10^7 conidia,> 10
same,survival,1×10^7 conidia,62.5%
same,MST,5×10^6 conidia,> 10
same,survival,5×10^6 conidia,80%
same,MST,5×10^7 conidia,4
same,survival,5×10^7 conidia,20%
same,"lung fungal burden, median","16 h, 1×10^7 conidia, SAP-treated mice",2.0×10^6 CFU
same,reduction in fungal burden in lung,"16 h, 1×10^7 conidia, SAP-treated vs. untreated",12 fold
